Data taken from US9493478B2, “Fused ring compound containing furan or salt thereof and pharmaceutical composition comprising same” (YUHAN CORPORATION, priority 2012, dated 2016).

Columns and labels:
Type in all cases: biochemical
PI3Kγ (p120γ)(h) = PI3Kγ (p120γ)(h) (Homo sapiens, UniProt P48736); assay: Assay for phosphatidylinositol 3-kinase gamma (PI3Kγ) activity, PI3K-HTRF kit; details: TR-FRET; enzyme 1.45 μg/ml, 10 μM PIP2, 10 μM ATP
Method: (§1) The compounds of the present invention were assayed for the activity of phosphatidylinositol 3-kinase gamma (PI3Kγ) by using a PI3K enzyme-homogenous time resolved fluorescence (PI3K-HTRF) kit, which is available from Upstate (Millipore Co, Billerica, Mass., USA).
(§2) Three kinds of buffer solutions including a phosphorylation reaction solution (a reaction buffer containing 40 mM MgCl2 which is available from Upstate was diluted 4 times and added with 5 mM DTT), a stop solution (STOP A and B solutions which are available from Upstate were mixed at a ratio of 3:1) and a fluorescence detection solution (Detection solutions A, B and C which are available from Upstate were mixed at a ratio of 1:1:18) were prepared. 1 mM of PIP2 substrate (phosphatidylinositol 4,5 biphosphate; Upstate), PI3Kγ (#14-558; Upstate) enzyme and 10 mM ATP (Sigma Aldrich Co., St. Louis, Mo., USA) were prepared. Each of PI3Kγ, 1 mM PIP2 and 10 mM ATP was diluted to 2.9 μg/ml (final reaction concentration: 1.45 μg/ml), 20 μM (final reaction concentration: 10 μM) and 40 μM (final reaction concentration: 10 μM), respectively. The buffer solution used for dilution and preparation process was the phosphorylation reaction solution. The stop solution was used for the termination of phosphorylation reaction, and the fluorescence detection solution was used for the detection of time-resolved fluorescence signals.
(§3) Each test sample was transferred to a 384 well low flange white flat bottom microplate (#3572, Corning Life Sciences, Lowell, Mass., USA) by using a multi 8-channel (Pipetman Neo multi 8×20, Gilson, Middleton, Wis., USA) to make a final phosphorylation reaction volume of 20 μl per each well. For the negative control, 5 μl of 14.4% DMSO and 10 μl of PIP2 substration solution were used, and 5 μl of 14.4% DMSO and 10 μl of PIP2/PI3Kγ mixed solution were used as the positive control. For the test group, 5 μl of a solution prepared by dissolving the compound obtained in Example in DMSO and 10 μl of PIP2/PI3Kγ mixed solution were used. Before the initiation of the phosphorylation reaction, sample compounds were pretreated with the enzyme for approximately 10 minutes, and then the phosphorylation reaction was induced by adding 5 μl of ATP. Since each of the test compound and ATP takes up 25% of the total volume, and PIP2 and PI3Kγ take up 50% of the total volume during the reaction, each solution was concentrated 4 and 2 times, respectively, before mixing the solutions. Subsequently, the test sample was gently shook for 3 minutes and subjected to a phosphorylation reaction for 90 minutes at room temperature, which was then added with 5 μl of the stop solution to terminate the phosphorylation reaction. In order to induce a time-resolved fluorescence reaction, 5 μl of the fluorescence detection solution was added to the sample. The fluorescence detection solution contains biotin-phosphatidylinositol 3,4,5-triphosphate (PIP3), streptavidin-labeled Allopycocyanin (APC) and europium-labeled Pleckstrin homology domain (the PIP3 binds to PH domain), and the time-resolved fluorescence reaction is induced by a series of reaction of PH domain and PIP3, and biotin and streptavidin. The sample was left to stand for 6 hours at room temperature, and the time-resolved fluorescence resonance energy transfer (TR-FRET) rate was measured (emission wavelength: 665 nm, 620 nm, excitation wavelength: 340 nm) by using a Flexstation3 Micro plate reader (Molecular Devices, USA). TR-FRET Rate and TR-Inhibition Rate were calculated based on Equations 1 and 2 below, and the results are expressed in IC50, which is the concentration of a compound that inhibits 50% of PI3Kγ activity in vitro. TR-FRET Rate=(665 nm emission wavelength/620 nm emission wavelength)×10000 <Equation 1> TR-FRET Inhibition Rate=[(TR-FRET Rate of Sample−TR-FRET Rate of Negative Control)/(TR-FRET Rate of Positive Control−TR-FRET Rate of Negative Control)]×100 <Equation 2>

PI3Kα (p110α/p85α)(h) = PI3Kα (p110α/p85α)(h) (Homo sapiens, UniProt P42336); assay: Assay for phosphatidylinositol 3-kinase alpha (PI3Kα) activity, PI3K-HTRF kit; details: TR-FRET; enzyme 0.3625 μg/ml, 10 μM PIP2, 10 μM ATP
Method: [The source words this procedure for another target and says it was used here with some conditions changed.] as §1, §2, §3

PI3K β (p110β/p85α)(h) = PI3K β (p110β/p85α)(h) (Homo sapiens, UniProt P42338); assay: Assay for phosphatidylinositol 3-kinase beta (PI3Kβ) activity, PI3K-HTRF kit; details: TR-FRET; enzyme 0.725 μg/ml, 10 μM PIP2, 10 μM ATP
Method: [The source words this procedure for another target and says it was used here with some conditions changed.] as §1, §2
as §3, with “2> […]” for “2>”

PI3Kδ (p110δ/p85α)(h) = PI3Kδ (p110δ/p85α)(h) (Homo sapiens, UniProt O00329); assay: Assay for phosphatidylinositol 3-kinase delta (PI3Kδ) activity, PI3K-HTRF kit; details: TR-FRET; enzyme 0.725 μg/ml, 10 μM PIP2, 10 μM ATP
Method: [The source words this procedure for another target and says it was used here with some conditions changed.] as §1, §2
as §3, with “2> […]” for “2>”

PI3Kγ (p120γ)(h), sequence (P48736 whole entry): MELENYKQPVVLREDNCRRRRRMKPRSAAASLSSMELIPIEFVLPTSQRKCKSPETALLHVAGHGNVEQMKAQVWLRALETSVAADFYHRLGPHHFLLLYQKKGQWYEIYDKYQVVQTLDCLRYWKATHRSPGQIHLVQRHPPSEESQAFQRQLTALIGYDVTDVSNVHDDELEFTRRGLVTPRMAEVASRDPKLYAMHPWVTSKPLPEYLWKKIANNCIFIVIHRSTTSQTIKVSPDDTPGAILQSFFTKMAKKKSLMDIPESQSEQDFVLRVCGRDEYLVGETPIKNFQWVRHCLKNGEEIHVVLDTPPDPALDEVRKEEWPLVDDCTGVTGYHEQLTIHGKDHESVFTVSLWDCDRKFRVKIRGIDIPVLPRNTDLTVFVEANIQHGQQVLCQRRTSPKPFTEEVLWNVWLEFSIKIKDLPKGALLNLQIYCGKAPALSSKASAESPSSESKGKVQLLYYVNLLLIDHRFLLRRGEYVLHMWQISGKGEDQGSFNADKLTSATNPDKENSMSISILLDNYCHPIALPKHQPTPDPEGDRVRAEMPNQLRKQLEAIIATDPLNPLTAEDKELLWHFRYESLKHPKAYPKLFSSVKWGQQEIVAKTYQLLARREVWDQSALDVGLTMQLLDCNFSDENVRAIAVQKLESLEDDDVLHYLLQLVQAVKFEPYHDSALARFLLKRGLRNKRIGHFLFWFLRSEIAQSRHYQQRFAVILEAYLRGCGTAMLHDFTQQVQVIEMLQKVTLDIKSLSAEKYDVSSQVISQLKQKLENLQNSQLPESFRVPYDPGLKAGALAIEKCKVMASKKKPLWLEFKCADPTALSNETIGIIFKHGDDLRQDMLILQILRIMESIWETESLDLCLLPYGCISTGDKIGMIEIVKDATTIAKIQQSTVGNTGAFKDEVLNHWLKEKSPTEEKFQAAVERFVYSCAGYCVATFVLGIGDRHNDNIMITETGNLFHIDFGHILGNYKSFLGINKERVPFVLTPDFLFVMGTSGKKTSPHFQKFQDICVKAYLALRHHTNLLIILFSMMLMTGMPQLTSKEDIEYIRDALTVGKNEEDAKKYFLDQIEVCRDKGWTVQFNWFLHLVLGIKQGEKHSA
PI3Kδ (p110δ/p85α)(h), sequence (O00329 whole entry): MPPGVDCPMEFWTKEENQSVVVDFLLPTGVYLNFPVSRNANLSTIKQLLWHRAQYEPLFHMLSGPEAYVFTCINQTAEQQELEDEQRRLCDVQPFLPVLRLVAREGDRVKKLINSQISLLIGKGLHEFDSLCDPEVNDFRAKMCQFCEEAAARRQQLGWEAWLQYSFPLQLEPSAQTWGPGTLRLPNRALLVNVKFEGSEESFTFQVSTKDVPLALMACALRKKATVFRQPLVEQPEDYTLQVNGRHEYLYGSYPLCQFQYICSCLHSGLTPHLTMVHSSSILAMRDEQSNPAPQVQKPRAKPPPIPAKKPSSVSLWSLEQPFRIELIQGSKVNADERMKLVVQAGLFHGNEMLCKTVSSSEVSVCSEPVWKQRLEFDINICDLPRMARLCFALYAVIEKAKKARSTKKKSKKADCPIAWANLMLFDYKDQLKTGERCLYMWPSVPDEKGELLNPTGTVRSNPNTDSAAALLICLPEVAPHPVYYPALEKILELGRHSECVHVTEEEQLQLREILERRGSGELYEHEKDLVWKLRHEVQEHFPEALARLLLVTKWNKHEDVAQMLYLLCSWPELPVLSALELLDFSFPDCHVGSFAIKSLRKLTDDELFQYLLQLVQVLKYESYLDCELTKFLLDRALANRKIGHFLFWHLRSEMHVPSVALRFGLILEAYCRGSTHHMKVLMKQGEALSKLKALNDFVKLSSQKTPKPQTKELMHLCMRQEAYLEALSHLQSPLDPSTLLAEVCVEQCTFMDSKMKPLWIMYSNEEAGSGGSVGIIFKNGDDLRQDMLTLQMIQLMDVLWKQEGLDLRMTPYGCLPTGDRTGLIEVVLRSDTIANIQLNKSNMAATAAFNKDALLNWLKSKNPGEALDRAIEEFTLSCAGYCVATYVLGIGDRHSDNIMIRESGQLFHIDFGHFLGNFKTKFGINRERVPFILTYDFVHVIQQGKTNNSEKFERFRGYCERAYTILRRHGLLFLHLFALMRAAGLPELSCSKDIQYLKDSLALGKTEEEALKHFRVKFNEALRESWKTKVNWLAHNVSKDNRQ
PI3Kδ (p110δ/p85α)(h), sequence (P27986 whole entry partner): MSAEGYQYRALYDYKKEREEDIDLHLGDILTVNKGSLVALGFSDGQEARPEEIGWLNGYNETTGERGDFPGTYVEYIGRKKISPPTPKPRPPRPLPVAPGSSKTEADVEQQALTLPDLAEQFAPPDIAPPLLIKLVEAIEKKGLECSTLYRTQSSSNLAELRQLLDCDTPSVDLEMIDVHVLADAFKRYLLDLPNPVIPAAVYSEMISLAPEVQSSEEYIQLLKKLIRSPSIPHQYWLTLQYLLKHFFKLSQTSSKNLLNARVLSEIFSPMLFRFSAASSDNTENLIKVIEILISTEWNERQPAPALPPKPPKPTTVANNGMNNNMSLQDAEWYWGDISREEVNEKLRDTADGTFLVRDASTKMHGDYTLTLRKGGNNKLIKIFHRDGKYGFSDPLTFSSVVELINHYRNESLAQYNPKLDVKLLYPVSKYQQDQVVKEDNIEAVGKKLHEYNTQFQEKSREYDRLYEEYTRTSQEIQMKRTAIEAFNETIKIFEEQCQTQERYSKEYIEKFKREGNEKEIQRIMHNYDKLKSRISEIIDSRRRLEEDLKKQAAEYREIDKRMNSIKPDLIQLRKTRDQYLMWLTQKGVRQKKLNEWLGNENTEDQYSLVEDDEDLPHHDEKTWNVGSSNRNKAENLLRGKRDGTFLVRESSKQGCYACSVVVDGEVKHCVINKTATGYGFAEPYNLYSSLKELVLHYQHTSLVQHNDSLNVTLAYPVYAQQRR
PI3Kα (p110α/p85α)(h), sequence (P42336 whole entry): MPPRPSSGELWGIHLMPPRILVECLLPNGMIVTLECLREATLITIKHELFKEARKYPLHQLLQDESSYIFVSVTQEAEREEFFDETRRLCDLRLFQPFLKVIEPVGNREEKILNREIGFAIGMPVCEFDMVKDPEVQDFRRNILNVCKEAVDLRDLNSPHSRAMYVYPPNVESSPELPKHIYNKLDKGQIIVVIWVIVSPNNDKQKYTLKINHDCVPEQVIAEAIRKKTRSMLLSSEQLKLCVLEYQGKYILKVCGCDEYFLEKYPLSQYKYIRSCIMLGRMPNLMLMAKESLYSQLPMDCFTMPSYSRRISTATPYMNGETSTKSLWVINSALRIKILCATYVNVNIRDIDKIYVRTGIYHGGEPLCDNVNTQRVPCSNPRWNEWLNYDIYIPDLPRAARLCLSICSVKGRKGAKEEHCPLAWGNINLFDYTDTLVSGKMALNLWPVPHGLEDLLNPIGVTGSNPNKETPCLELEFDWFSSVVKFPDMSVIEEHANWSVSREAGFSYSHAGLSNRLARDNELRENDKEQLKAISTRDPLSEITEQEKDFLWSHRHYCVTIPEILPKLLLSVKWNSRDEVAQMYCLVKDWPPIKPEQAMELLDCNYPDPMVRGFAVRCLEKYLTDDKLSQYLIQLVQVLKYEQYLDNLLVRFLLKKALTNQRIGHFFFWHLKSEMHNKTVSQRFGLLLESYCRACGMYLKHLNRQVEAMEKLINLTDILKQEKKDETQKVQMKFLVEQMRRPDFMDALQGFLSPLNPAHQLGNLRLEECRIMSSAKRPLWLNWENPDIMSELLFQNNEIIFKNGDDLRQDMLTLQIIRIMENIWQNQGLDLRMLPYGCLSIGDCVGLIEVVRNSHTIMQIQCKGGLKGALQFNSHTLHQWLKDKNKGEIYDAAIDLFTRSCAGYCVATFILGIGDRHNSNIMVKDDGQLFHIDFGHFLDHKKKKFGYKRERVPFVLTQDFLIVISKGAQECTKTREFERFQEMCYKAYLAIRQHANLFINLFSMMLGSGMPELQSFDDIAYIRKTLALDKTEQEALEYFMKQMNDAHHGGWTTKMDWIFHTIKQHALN
PI3Kα (p110α/p85α)(h), sequence (P27986 whole entry partner): as the sequence (P27986 whole entry partner) above
PI3K β (p110β/p85α)(h), sequence (P42338 whole entry): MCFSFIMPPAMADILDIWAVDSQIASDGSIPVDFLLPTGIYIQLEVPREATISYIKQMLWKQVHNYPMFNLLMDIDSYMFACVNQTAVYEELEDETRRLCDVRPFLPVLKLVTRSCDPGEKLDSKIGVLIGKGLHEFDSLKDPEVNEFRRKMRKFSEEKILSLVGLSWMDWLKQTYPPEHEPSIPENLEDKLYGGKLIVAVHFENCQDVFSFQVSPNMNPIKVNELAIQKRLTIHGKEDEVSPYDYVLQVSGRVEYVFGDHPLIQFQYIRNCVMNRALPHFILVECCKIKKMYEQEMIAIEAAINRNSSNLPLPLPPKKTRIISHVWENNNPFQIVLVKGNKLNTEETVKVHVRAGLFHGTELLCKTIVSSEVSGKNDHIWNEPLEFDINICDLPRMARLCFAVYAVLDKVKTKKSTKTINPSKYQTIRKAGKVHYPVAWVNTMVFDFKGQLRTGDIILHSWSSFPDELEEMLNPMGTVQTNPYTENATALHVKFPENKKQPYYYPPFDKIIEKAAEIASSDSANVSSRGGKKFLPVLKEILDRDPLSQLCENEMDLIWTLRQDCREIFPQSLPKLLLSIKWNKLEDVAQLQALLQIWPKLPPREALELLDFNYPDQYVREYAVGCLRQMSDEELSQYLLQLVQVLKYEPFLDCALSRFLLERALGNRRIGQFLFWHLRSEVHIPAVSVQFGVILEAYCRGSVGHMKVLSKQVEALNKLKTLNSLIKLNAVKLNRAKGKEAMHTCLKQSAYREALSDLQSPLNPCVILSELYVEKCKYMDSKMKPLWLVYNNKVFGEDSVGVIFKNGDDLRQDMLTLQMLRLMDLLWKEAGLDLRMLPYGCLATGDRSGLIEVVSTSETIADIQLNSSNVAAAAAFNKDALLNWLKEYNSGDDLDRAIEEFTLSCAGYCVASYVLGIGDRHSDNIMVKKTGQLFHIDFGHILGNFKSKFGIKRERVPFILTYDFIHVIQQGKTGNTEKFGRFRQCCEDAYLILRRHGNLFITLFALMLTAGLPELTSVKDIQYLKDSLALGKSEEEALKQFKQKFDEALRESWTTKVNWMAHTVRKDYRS
PI3K β (p110β/p85α)(h), sequence (P27986 whole entry partner): as the sequence (P27986 whole entry partner) above

SMILES | IC50 (PI3Kγ (p120γ)(h)) | IC50 (PI3Kα (p110α/p85α)(h)) | IC50 (PI3K β (p110β/p85α)(h)) | IC50 (PI3Kδ (p110δ/p85α)(h))
N#Cc1ccccc1C#Cc1cncc2cc(/C=C3\SC(=S)NC3=O)oc12 [Example 513, (Z)-2-([2-{(4-Oxo-2-thioxothiazolidin-5-ylidene)methyl}furo[3,2-c]pyridin-7-yl]ethynyl)benzonitrile] | 11 nM | 4 nM | 715 nM | 74 nM
CN(C)S(=O)(=O)c1ccc(-c2cncc3cc(/C=C4\SC(=S)NC4=O)oc23)cc1OC(F)(F)F [Example 339, (Z)—N,N-Dimethyl-4-[2-{(4-oxo-2-thioxothiazolidin-5-ylidene)methyl}furo[3,2-c]pyridin-7-yl]-2-(trifluoromethoxy)benzenesulfonamide] | 16 nM | 8 nM | 443 nM | 188 nM
O=C1NC(=O)/C(=C/c2cc3cncc(C#Cc4ccc(OC(F)(F)F)cc4)c3o2)S1 [Example 533] | 37 nM | 14 nM | 3720 nM | 2230 nM
Cc1cc(-c2cncc3cc(/C=C4\SC(=O)NC4=O)oc23)ccc1S(=O)(=O)N1CCOCC1 [Example 307, (Z)-5-([7-{3-Methyl-4-(morpholinosulfonyl)phenyl}furo[3,2-c]pyridin-2-yl]methylene)thiazolidine-2,4-dione] | 15 nM | 14 nM | 1940 nM | 52 nM
O=C1NC(=S)S/C1=C\c1cc2cncc(C#CC3CC3)c2o1 [Example 475, (Z)-5-[{7-(Cyclopropylethynyl)furo[3,2-c]pyridin-2-yl}methylene]-2-thioxothiazolidin-4-one] | 10 nM | 68 nM | > 10000 nM | > 10000 nM
O=C1NC(=O)/C(=C/c2cc3cncc(C#Cc4ccccc4C(F)(F)F)c3o2)S1 [Example 526] | 23 nM | 6 nM | 1210 nM | 33 nM
O=C1NC(=O)/C(=C/c2cc3cncc(-c4cccc(CN5CCCCC5)c4)c3o2)S1 [Example 132, (Z)-5-([7-{3-(Piperidin-1-ylmethyl)phenyl}furo[3,2-c]pyridin-2-yl]methylene)thiazolidine-2,4-dione] | 95 nM | 22 nM | 337 nM | 98 nM
Nc1ccc(-c2cncc3cc(/C=C4\SC(=S)NC4=O)oc23)cc1C(F)(F)F [Example 361, (Z)-5-([7-{4-Amino-3-(trifluoromethyl)phenyl}furo[3,2-c]pyridin-2-yl]methylene)-2-thioxothiazolidin-4-one] | 10 nM | 41 nM | 1430 nM | 924 nM
CN(C)S(=O)(=O)c1ccc(-c2cncc3cc(/C=C4\SC(=O)NC4=O)oc23)cc1F [Example 280, (Z)-4-[2-{(2,4-Dioxothiazolidin-5-ylidene)methyl}furo[3,2-c]pyridin-7-yl]-2-fluoro-N,N-dimethylbenzenesulfonamide] | 22 nM | 46 nM | 1110 nM | 3000 nM
O=C1NC(=O)/C(=C/c2cc3cncc(-c4cccc(OCc5ccccc5)c4)c3o2)S1 [Example 6, (Z)-5-([7-{3-(Benzyloxy)phenyl}furo[3,2-c]pyridin-2-yl]methylene)thiazolidine-2,4-dione] | 14 nM | 2 nM | 3 nM | 2350 nM
CSc1ccc(-c2cncc3cc(/C=C4\SC(=O)NC4=O)oc23)cn1 [Example 41, (Z)-5-([7-{6-(Methylthio)pyridin-3-yl}furo[3,2-c]pyridin-2-yl]methylene)thiazolidine-2,4-dione] | 13 nM | 12 nM | 100 nM | 322 nM
O=C1NC(=O)/C(=C/c2cc3cncc(C(=O)NC4CCCCC4)c3o2)S1 [Example 422, (Z)—N-Cyclohexyl-2-{(2,4-dioxothiazolidin-5-ylidene)methyl}furo[3,2-c]pyridine-7-carboxamide] | 204 nM | 31 nM | 1230 nM | 1140 nM
